Values quoted from earlier work in US20240180871A1, “MODIFIED-RELEASE SILODOSIN COMPOSITIONS AND USE THEREOF IN METHODS FOR MALE CONTRACEPTION” (PHARMAJOR INCORPORATED, priority 2022, published 2024).
Read-outs that look alike come from different tables or passages of the source.

| solubility (in acetic acid) | solubility (in alcohol) | solubility (in water) | Structure (SMILES) | effect on semen in male subjects (male subjects; during BPH treatment, in some cases, KOBAYASHI 2009, SAKATA 2012) | sex-related adverse effects associated with administration (male subjects; known in the art) |
| --- | --- | --- | --- | --- | --- |
| – | – | – | CC(Cc1cc2c(c(C(N)=O)c1)N(CCCO)CC2)NCCOc1ccccc1OCC(F)(F)F (centres unmarked) [silodosin, 1-(3-hydroxypropyl)-5-[2-[[2-[2-(2,2,2-trifluoroethoxy)phenoxy]ethyl]amino]propyl]indoline-7-carboxamide] | causing aspermia, azoospermia, or severe oligozoospermia | discomfort upon ejaculation, decrease in the quality of orgasm, decrease in erectile function, and reduction of sexual desire |
| very soluble | freely soluble | very slightly soluble | C[C@H](Cc1cc2c(c(C(N)=O)c1)N(CCCO)CC2)NCCOc1ccccc1OCC(F)(F)F [(R)-silodosin, (−)-(R)-1-(3-hydroxypropyl)-5-[2-[[2-[2-(2,2,2-trifluoroethoxy)phenoxy]ethyl]amino]propyl]indoline-7-carboxamide] | – | – |
